Experimental findings from PMC3531252 (EJNMMI Research, 2012) are described below.

Values joined by “and” are separate entries in the source; they are usually repeats but may differ in a detail not shown here. Equal entries are not always repeated.

The target in experiment [1] is T1, GlyT1 (Homo sapiens, UniProt P48067).
T1 construct: whole-hemisphere autoradiography (ARG) on human brain slices; from tissue; host or cells: post-mortem human brain whole-hemisphere cryosections
T1 sequence (P48067 1-706): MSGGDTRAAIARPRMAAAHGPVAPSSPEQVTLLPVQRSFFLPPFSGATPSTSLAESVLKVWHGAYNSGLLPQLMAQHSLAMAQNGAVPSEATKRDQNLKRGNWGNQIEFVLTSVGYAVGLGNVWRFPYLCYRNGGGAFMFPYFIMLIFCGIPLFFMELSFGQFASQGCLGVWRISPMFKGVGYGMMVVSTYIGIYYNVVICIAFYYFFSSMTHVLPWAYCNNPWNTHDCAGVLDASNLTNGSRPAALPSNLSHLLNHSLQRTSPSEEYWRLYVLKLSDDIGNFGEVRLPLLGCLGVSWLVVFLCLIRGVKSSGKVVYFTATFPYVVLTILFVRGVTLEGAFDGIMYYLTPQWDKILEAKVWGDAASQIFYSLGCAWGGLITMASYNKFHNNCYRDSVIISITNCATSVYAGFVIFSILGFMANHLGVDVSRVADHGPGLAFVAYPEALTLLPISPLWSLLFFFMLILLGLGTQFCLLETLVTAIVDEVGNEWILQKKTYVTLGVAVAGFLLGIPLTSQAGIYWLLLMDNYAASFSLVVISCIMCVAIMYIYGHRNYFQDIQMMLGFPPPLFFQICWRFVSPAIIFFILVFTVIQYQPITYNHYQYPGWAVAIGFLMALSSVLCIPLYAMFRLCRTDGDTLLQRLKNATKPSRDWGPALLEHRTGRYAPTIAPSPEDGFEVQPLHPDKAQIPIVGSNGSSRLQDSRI
As to the kind of experiment: in vitro whole-hemisphere autoradiography on human brain slices. The experiment is classed as binding. The conditions noted are these: blocker 10 μM.
Experimental: Human brains without pathology were obtained from the National Institute of Forensic Medicine, Karolinska Institutet (Stockholm, Sweden) as well as from the Department of Forensic and Insurance Medicine, Semmelweis University, Budapest. […] The sectioning of the brains and the autoradiography experiments were performed at the Department of Clinical Neuroscience, Karolinska Institutet. The cryosectioning took place on a Leica cryomacrocut system (San Marcos, CA, USA) [28, 29]. Horizontal sections (100 μm thick, containing cerebral cortex, white matter, cerebellum, and pons) and coronal sections (100 μm thick, containing cerebral cortex, white matter, putamen, and caudate nucleus) were used. […] For comparison with other GlyT1 radioligands, blocking was also made with SSR504734 (10 μM). The slices were rinsed thrice for 3 min each with cold (5°C) washing buffer (120 mM NaCl, 50 mM Tris–HCl, pH = 7.5) and subsequently dipped into cold water. The slides were then placed on an imaging plate (Fujifilm Plate BAS-TR2025, Fujifilm, Tokyo, Japan) for 20 min. The plates were developed, and the resulting images were processed in a Fujifilm BAS-5000 phosphorimager (Fujifilm, Tokyo, Japan). […] The autoradiography (ARG) signal's optical density was measured using Multi Gauge 3.2 image analysis software (Fujifilm, Tokyo, Japan).

For experiment [2], the system named is GlyT1. As to the kind of experiment: GlyT1 occupancy and VND by Lassen plot, PET in rhesus monkeys. The experiment is classed as in vivo, rhesus monkey. The conditions noted are these: for GlyT1 occupancy: seven regions. How it is done: PET measurements were performed for 123 min immediately after i.v. injection of radioligand at baseline and after pretreatment with SSR504734. SSR504734 was administered over 15 min, starting 30 min before the radioligand injection. PET measurements were performed on two separate days with two monkeys. One baseline PET measurement and one PET measurement after pretreatment with 1.5 mg/kg of SSR504734 were performed on one monkey. One baseline PET measurement and one PET measurement after pretreatment with 4.5 mg/kg were performed on the other monkey.
GlyT1 occupancy was estimated by applying Lassen plot approach, which can determine nondisplaceable distribution volume (VND) and occupancy using VT values at baseline and after pretreatment. Seven regions (the pons, cerebellum, putamen, frontal cortex, caudate, anterior cingulate cortex, and temporal cortex) were used for the plot.

For the compound `O=C(N[C@@H](c1ccccc1)[C@@H]1CCCCN1)c1cccc(C(F)(F)F)c1Cl` [SSR504734, reference compound], the “reduction of [11C]N-methyl-SSR504734 binding by blocker” value at GlyT1 [1] is “prominent in the white matter and pons”. In addition, the GlyT1 occupancy in the experiment on GlyT1 [2] (1.5 mg/kg SSR504734, rhesus monkey 1, Lassen plot) was 45% and 45.2%; in the experiment on GlyT1 [2] (4.5 mg/kg SSR504734, rhesus monkey 2, Lassen plot), 74.3%. In addition, the “Kd of occupancy-dose relationship” value in the experiment with GlyT1 [2] (Omax assumed 100%) amounted to 1.7 mg/kg.
